Test results published in ChEMBL document CHEMBL1909046, “DrugMatrix in vitro pharmacology data”.

Experiments:
[1] = DRUGMATRIX: beta-Lactamase enzyme inhibition (substrate: Nitrocefin); parameters: species or system Bacillus cereus; settings: Not Active = under 50% inhibition at 10 µM
[2] = target: T1, Muscarinic acetylcholine receptor M4 (Homo sapiens, UniProt P08173); assay type: cell membranes, CHO-K1, Membrane; settings: cho-k1; further: in other assays of this panel Not Active means under 50% inhibition at 10 µM
T1 sequence (P08173 whole entry): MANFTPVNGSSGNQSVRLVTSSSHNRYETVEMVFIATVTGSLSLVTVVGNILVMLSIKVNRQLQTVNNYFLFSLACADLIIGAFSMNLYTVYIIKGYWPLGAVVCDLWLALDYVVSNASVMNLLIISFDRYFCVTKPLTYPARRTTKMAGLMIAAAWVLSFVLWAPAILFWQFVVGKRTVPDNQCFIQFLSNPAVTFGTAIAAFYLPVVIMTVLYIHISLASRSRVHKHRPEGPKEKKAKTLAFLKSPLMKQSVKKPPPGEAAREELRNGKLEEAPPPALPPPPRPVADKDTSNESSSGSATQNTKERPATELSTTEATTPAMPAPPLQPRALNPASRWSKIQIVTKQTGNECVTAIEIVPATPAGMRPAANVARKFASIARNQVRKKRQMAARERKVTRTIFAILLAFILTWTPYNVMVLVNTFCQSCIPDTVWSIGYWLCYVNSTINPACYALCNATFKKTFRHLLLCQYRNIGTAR

Nitric oxide synthase 1 = Nitric oxide synthase 1 (Rattus norvegicus, UniProt P29476); assay type: tissue-based, Cerebellum; further: in other assays of this panel Not Active means under 50% inhibition at 10 µM
[3] = DRUGMATRIX: Phosphodiesterase PDE3 enzyme inhibition (substrate: [3H]cAMP + cAMP); assay type: tissue-based, Homo sapiens; settings: platelet; Not Active = under 50% inhibition at 10 µM
[4] = DRUGMATRIX: Platelet-Derived Growth Factor (PDGF) radioligand binding (ligand: [125I] PDGF); assay type: cell-based; settings: nih3t3; Not Active = under 50% inhibition at 10 µM
[5] = DRUGMATRIX: Potassium Channel [KATP] radioligand binding (ligand: [3H] Glyburide); assay type: cell membranes, Membrane; settings: hit-t15; Not Active = under 50% inhibition at 10 µM
Cathepsin G = target: T2, Cathepsin G (Homo sapiens, UniProt P08311); assay: biochemical; assay type: tissue-based, Neutrophil; settings: neutrophil;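 further: inhibition of Cathepsin G enzyme activity, tested on an AMC-conjugated peptide substrate; in other assays of this panel Not Active means under 50% inhibition at 10 µM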
T2 sequence (P08311 whole entry): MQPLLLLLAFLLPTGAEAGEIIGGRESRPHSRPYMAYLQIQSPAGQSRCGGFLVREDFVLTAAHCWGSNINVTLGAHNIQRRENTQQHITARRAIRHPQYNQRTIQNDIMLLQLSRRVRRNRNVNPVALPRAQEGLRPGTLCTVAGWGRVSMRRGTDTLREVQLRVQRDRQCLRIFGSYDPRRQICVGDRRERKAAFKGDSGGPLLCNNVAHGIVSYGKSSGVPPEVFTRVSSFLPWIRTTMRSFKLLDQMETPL

Nitric oxide synthase 1, sequence (P29476 whole entry): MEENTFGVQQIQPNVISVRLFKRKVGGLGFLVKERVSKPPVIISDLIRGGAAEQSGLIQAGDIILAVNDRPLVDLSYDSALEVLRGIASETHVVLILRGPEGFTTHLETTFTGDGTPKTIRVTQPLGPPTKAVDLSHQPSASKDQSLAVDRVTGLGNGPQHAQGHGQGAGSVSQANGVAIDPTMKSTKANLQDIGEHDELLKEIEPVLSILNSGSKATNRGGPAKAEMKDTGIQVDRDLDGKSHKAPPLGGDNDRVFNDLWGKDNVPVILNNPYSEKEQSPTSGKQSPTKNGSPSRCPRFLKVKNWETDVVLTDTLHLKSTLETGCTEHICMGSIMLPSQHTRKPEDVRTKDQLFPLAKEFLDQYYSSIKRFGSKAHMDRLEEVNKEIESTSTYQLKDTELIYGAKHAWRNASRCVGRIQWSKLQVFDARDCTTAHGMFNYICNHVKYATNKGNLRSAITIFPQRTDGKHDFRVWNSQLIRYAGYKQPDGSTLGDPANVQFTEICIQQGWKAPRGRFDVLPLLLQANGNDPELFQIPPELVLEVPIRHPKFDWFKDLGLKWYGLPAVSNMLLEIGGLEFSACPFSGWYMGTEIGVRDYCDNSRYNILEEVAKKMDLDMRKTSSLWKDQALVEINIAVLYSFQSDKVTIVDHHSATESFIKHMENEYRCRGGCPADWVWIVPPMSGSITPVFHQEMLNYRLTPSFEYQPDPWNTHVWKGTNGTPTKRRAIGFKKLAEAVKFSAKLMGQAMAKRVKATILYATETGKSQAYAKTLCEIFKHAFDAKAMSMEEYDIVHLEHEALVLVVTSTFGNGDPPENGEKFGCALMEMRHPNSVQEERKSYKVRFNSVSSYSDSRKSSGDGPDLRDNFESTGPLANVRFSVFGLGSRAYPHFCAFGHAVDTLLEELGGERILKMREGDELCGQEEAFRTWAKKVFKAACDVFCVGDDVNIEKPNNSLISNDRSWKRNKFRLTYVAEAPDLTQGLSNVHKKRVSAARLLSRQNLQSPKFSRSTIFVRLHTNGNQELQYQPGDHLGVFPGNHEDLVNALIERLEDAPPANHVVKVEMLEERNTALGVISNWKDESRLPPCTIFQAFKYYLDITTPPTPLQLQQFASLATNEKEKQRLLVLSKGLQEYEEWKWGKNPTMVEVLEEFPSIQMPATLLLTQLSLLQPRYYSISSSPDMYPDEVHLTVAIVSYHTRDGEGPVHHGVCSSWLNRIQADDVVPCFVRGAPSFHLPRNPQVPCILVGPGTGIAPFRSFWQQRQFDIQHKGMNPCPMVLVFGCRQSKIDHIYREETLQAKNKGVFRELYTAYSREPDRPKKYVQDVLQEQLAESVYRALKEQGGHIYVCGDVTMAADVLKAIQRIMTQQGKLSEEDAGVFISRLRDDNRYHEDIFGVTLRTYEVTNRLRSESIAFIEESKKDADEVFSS

C=CCc1ccc2c(c1)OCO2 [SAFROLE]
Not Active: IC50 [1] | Ki [1] | IC50 [2] | IC50 (Nitric oxide synthase 1) | IC50 [3] | Ki [3] | IC50 [4] | Ki [4] | IC50 [5] | Ki [5] | IC50 (Cathepsin G)

C1CCN2C[C@@H]3C[C@@H](CN4CCCC[C@@H]34)[C@H]2C1 [SPARTEINE]
Not Active: IC50 [1] | Ki [1] | IC50 [2] | IC50 (Nitric oxide synthase 1) | IC50 [3] | Ki [3] | IC50 [4] | Ki [4] | IC50 [5] | Ki [5] | IC50 (Cathepsin G)
